Experimental findings from US20090156582A1, “Pyrazole Compound” (priority 2005, published 2009) are described below.

The target in the experiment is T1, recombinant GSK3β enzyme (human GSK3β) (Homo sapiens, UniProt P49841).
T1 construct: FLAG (N); made in house; host or cells: Sf-21 insect cells, recombinant baculovirus (pFASTBAC1 / BAC-TO-BAC)
Description: Measurement of GSK3β inhibitory activity. Format: biochemical. The following applies: glycogen synthase peptide substrate, Kinase Glo luminescence, read-out: IC50 (concentration of test compound needed for 50% inhibition of luminescent intensity), GSK3β inhibitory activity. The text has this: Human GSK3β gene was cloned by a PCR method using a primer set:
prepared using human brain cDNA (Clontech; trade name: QUICK-Clone cDNA) as a template and in reference to the base sequence of GSK3β gene registered in GenBank under Accession Number NM_002093.
PCR was done according to the protocol attached to KOD plus DNA polymerase (Toyo Boseki Kabushiki Kaisha). The obtained PCR product was electrophoresed on agarose gel (1%), and 1.2 kb of DNA fragment including GSK3β gene was collected from the gel and then digested with restriction enzymes EcoR I and Sal I. The restriction enzyme-treated DNA was electrophoresed on agarose gel (1%). The obtained DNA fragment was collected, and ligated to the plasmid pFASTBAC1 (Invitrogen), which had been digested with restriction enzyme EcoR I and Sal I, to produce expression plasmid pFB-GSK3B. The base sequence of insertion fragment was confirmed to find that it corresponded to the objective sequence. In addition, virus stock BAC-GSK3B of recombinant Baculovirus was prepared using BAC-TO-BAC Baculovirus Expression System (Invitrogen).
Sf-21 cells (Invitrogen) were seeded on Sf-900 II SFM medium (Invitrogen)(150 ml) containing 10% fetal calf serum at 1×10^6 cells/ml, and cultured at 27° C. for 24 hr. The virus stock […] obtained above of recombinant Baculovirus was added by 150 μl to the obtained culture medium, and the cells were cultured for another 60 hr. The culture medium was centrifuged (3000 rpm, 10 min) to separate the cells, and the cells were washed once with PBS. The cells were suspended in 10 ml of cell lysis buffer (25 mM HEPES (pH 7.5), 1% Triton X, 130 mM sodium chloride, 1 mM EDTA, 1 mM Dithiothreitol, 25 mM β-glycerophosphate, Protease inhibitor Complete (Boehringer), 1 mM Sodium orthovanadate), treated 4 times using a homogenizer (POLYTRON) at 20000 rpm for 30 sec to disrupt the cells. The disrupted solution of cells was centrifuged (40000 rpm, 45 min.), and GSK3β was purified from the obtained supernatant using Anti-FLAG M2 Affinity Gel (Sigma Ltd.).
10 μl of ATP solution (2.5 μM ATP) was added to the obtained mixture, and the mixture was reacted at room temperature for 30 min. Kinase Glo Reagent (Promega) (50 μl) was added to the reaction solution to stop the reaction. After reaction at room temperature for 10 min, the luminescent intensity was measured using ARVO multilabel counter (PerkinElmer Life Sciences). The concentrations of the test compounds needed for 50% inhibition of luminescent intensity (IC50 value) were calculated by PRISM 3.0 (GraphPad Software).
For orientation: Kinase-Glo measures the ATP left after a reaction by luminescence.

T1 sequence (P49841 whole entry): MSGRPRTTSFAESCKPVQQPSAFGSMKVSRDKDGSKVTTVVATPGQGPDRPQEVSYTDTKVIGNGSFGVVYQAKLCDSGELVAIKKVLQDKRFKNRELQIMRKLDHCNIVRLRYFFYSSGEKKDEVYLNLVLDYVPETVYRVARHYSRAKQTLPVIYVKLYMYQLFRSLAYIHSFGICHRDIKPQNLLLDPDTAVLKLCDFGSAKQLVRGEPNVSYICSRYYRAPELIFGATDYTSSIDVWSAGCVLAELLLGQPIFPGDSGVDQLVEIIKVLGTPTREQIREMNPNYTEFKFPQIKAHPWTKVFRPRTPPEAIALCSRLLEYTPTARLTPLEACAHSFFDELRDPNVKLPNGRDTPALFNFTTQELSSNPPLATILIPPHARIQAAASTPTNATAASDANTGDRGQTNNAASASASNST

As for `CC(=O)Nc1cccc(C(=O)Nc2c[nH]nc2C(=O)NCCS(=O)(=O)c2ccc(Cl)cc2)c1` [Example 383, 4-((3-(acetylamino)benzoyl)amino)-N-(2-((4-chlorophenyl)sulfonyl)ethyl)-1H-pyrazole-3-carboxamide], the IC50 was under 0.1 µM. On to `Cc1cccc(C(=O)Nc2c[nH]nc2C(=O)NCC(F)(F)F)n1` [Example 389, 6-methyl-N-(3-(((2,2,2-trifluoroethyl)amino)carbonyl)-1H-pyrazol-4-yl)pyridine-2-carboxamide], for which the IC50 was under 0.1 µM.

As to `CNC(=O)c1n[nH]cc1NC(=O)C(c1ccccc1)c1ccccc1` [compound 003], the IC50 was under 0.1 µM.

On to `O=C(Nc1c[nH]nc1C(=O)NCCc1ccccc1)c1ccc(F)cc1F` [Example 134, 4-[(2,4-difluorobenzoyl)amino]-N-(2-phenylethyl)-1H-pyrazole-3-carboxamide], for which the IC50 is under 0.1 µM. For the compound `O=C(Nc1c[nH]nc1C(=O)NCc1ccccc1)c1ccccn1` [Example 337, N-(3-((benzylamino)carbonyl)-1H-pyrazol-4-yl)pyridine-2-carboxamide], the IC50 was under 0.1 µM. The same measure for `O=C(COc1ccccc1)Nc1c[nH]nc1C(=O)Nc1ccccc1` [compound 083]: under 0.1 µM; for `CC(C)NC(=O)c1n[nH]cc1NC(=O)c1ccc(Oc2ccccc2)cc1` [compound 032]: under 0.1 µM; for `CC(C)NC(=O)c1n[nH]cc1NC(=O)Cc1ccc(-c2ccccc2)cc1` [compound 022]: 0.233 µM. On to `CC(=O)Nc1c[nH]nc1C(=O)NC1CCCC1` [compound 059], for which the IC50 is under 0.1 µM. To `CC(C)(C)C(=O)Nc1c[nH]nc1C(=O)NCCC#N` [Example 415, N-(2-cyanoethyl)-4-(2,2-dimethylpropanoylamino)-1H-pyrazole-3-carboxamide] belongs under 0.1 µM.

Take `O=C(Nc1c[nH]nc1C(=O)NCc1ccco1)c1ccccn1` [Example 347, N-(3-(((2-furylmethyl)amino)carbonyl)-1H-pyrazol-4-yl)pyridine-2-carboxamide]: the IC50 is under 0.1 µM. The same measure for `O=C(Nc1c[nH]nc1C(=O)NC1CCCC1)c1ccccn1` [Example 344, N-(3-((cyclopentylamino)carbonyl)-1H-pyrazol-4-yl)pyridine-2-carboxamide]: under 0.1 µM; for `CC(=O)Nc1cccc(C(=O)Nc2c[nH]nc2C(=O)NCCSc2ccccc2)c1` [Example 376, 4-((3-(acetylamino)benzoyl)amino)-N-(2-(phenylthio)ethyl)-1H-pyrazole-3-carboxamide]: under 0.1 µM; for `O=C(Nc1c[nH]nc1C(=O)NCCc1ccccc1)c1ccccc1` [Example 131, 4-benzoylamino-N-(2-phenylethyl)-1H-pyrazole-3-carboxamide]: under 0.1 µM. The same measure for `O=C(CCc1ccccc1)Nc1c[nH]nc1C(=O)Nc1ccccc1` [compound 087]: 0.115 µM; for `CC(=O)Nc1cccc(C(=O)Nc2c[nH]nc2C(=O)NCCOC(C)C)c1` [Example 371, 4-((3-(acetylamino)benzoyl)amino)-N-(2-isopropoxyethyl)-1H-pyrazole-3-carboxamide]: under 0.1 µM; for `CC(C)NC(=O)c1n[nH]cc1NS(=O)(=O)C[C@]12CCC(CC1=O)C2(C)C` [compound 197]: 0.109 µM. As for `Cc1cccc(C(=O)Nc2c[nH]nc2C(=O)NCCOc2ccc(F)cc2)n1` [Example 428], the IC50 was under 0.1 µM. Consider `COc1ccccc1CC(=O)Nc1c[nH]nc1C(=O)NC1CCCC1` [compound 068], for which the IC50 was under 0.1 µM. Consider `CC(C)NC(=O)c1n[nH]cc1NC(=O)c1ccccn1` [Example 345, N-(3-((isopropylamino)carbonyl)-1H-pyrazol-4-yl)pyridine-2-carboxamide], for which the IC50 was under 0.1 µM. Consider `CS(=O)(=O)Nc1c[nH]nc1C(=O)NC1CCCC1` [compound 227, N-cyclopentyl-4-methanesulfonylamino-1H-pyrzole-3-carboxamide], for which the IC50 came to 0.274 µM.

As to `COc1cccc(C(=O)Nc2c[nH]nc2C(=O)NCCC#N)c1` [Example 414, N-(2-cyanoethyl)-4-(3-methoxybenzoylamino)-1H-pyrazole-3-carboxamide], the IC50 was under 0.1 µM. To `O=C(NC1CCCC1)c1n[nH]cc1NC(=O)C1CCCCC1` [compound 063] belongs under 0.1 µM. In the case of `N#Cc1ccc(NCCNC(=O)c2n[nH]cc2NC(=O)c2ccccn2)nc1` [Example 350], the IC50 is under 0.1 µM.

For the compound `O=C(Cc1ccc(-c2ccccc2)cc1)Nc1c[nH]nc1C(=O)NC1CCCC1` [compound 065], the IC50 was 0.234 µM. To `O=C(Nc1c[nH]nc1C(=O)NCCCOc1ccccc1)c1ccccn1` [Example 391, N-(3-(((3-phenoxypropyl)amino)carbonyl)-1H-pyrazol-4-yl)pyridine-2-carboxamide] belongs under 0.1 µM; to `CCC(CC)C(=O)Nc1c[nH]nc1C(=O)NC1CCCC1` [Example 368, N-cyclopentyl-4-((2-ethylbutanoyl)amino)-1H-pyrazole-3-carboxamide], under 0.1 µM. The same measure for `CCOCC(=O)Nc1c[nH]nc1C(=O)Nc1ccccc1` [compound 085]: under 0.1 µM; for `CC(=O)Nc1cccc(C(=O)Nc2c[nH]nc2C(=O)NC(C)C)c1` [compound 034]: under 0.1 µM; for `O=C(CC1CCCC1)Nc1c[nH]nc1C(=O)NCc1ccccc1` [compound 099]: 0.102 µM. The same measure for `O=C(NCc1ccccc1)c1n[nH]cc1NC(=O)C1CCCCC1` [Example 102, N-benzyl-4-[(cyclohexylcarbonyl)amino]-1H-pyrazole-3-carboxamide]: under 0.1 µM; for `O=C(Nc1c[nH]nc1C(=O)NCc1ccco1)c1ccc(C(F)(F)F)cc1` [compound 154]: 0.271 µM; for `CC(C)OCCNC(=O)c1n[nH]cc1NC(=O)c1ccccn1` [Example 357, N-(3-(((2-isopropoxyethyl)amino)carbonyl)-1H-pyrazol-4-yl)pyridine-2-carboxamide]: under 0.1 µM. On to `CC(=O)Nc1cccc(C(=O)Nc2c[nH]nc2C(=O)NC2CCCC2)c1` [compound 075], for which the IC50 was under 0.1 µM.

As for `O=C(NC1CCCC1)c1n[nH]cc1NC(=O)c1c[nH]c2ccccc12` [compound 078], the IC50 is under 0.1 µM. Consider `CC(C)NC(=O)c1n[nH]cc1NC(=O)/C=C/c1ccccc1` [compound 023], for which the IC50 was under 0.1 µM. To `O=C(Cc1c[nH]c2ccccc12)Nc1c[nH]nc1C(=O)NC1CCCC1` [compound 069] belongs under 0.1 µM; to `Cc1[nH]nc(C(=O)NC2CCCC2)c1NC(=O)c1ccccc1` [Example 378, 4-(benzoylylamino)-N-cyclopentyl-5-methyl-1H-pyrazole-3-carboxamide], 1 µM; to `Cc1ccc(C(=O)Nc2c[nH]nc2C(=O)NC2CCCC2)cn1` [Example 364, N-(3-((cyclopentylamino)carbonyl)-1H-pyrazol-4-yl)-6-methylnicotinamide], under 0.1 µM. In the case of `CC(=O)Nc1c[nH]nc1C(=O)NCCc1ccccc1` [Example 120, 4-acetylamino-N-(2-phenylethyl)-1H-pyrazole-3-carboxamide], the IC50 is under 0.1 µM.

Take `CNC(=O)c1n[nH]cc1NC(=O)C1CCCCC1` [compound 005]: the IC50 is 0.307 µM.
